In patent US4812409A, “Hydrolyzable fluorescent substrates and analytical determinations using same” (Eastman Kodak Company, priority 1986, dated 1989):
One block for each compound: values may come before it.

What was measured:
[1] = tested on: Klebsiella pneumoniae (ATCC 13882); assay: Detection of Klebsiella pneumoniae with β-D-xylosidase substrate, fluorescence; assay type: cell-based; settings: for Relative Fluorescence: 37° C., ex 540 nm, em 620 nm
Experimental: (§1) Cells were prepared as follows. A β-D-xylosidase induction medium was prepared by adding the following materials in order to 350 μl of 0.1 molar sodium, potassium phosphate buffer (pH 7.0), 25 μl 5% yeast extract, 50 μl of 4% (NH4)2 HPO4 and 1% KCl, 50 μl 0.0075% MnSO4.H2 O and 0.01% FeSO4.7H2 O. This mixture was autoclaved for 30 minutes, then cooled. Just before incubation, 25 μl of 20% xylose solution and 2% MgSO4.7H2 O, which had been filter sterilized or autoclaved separately, were added. Klebsiella pneumoniae (ATCC 13882) and Enterobacter cloacae (ATCC 23355) were both grown in this medium for 18 hours at 37° C. Ten milliliters of cells were harvested by centrifugation, washed, and resuspended in 0.1 molar potassium phosphate buffer (pH 7.0). The cell concentration was adjusted to approximately 5×10^8 cells/ml (optical density 0.800 at 620 nm).
(§2) In two milliliters HA 96 well titration plates were placed 200 μl of the cell suspension. To plate 1 was added 100 μl of the substrate solution of Example 1 without surfactant (10 μg/μl N,N-dimethylformamide in 9 μl potassium phosphate buffer), to plate 2 was added the substrate solution with surfactant (10 μg/μl N,N-dimethylformamide and 200 μl TRITON X-100 surfactant in 9 μl potassium phosphate buffer).
(§3) After the substrate was added, an initial reading was taken, the plates were kept at 37° C., and additional readings were taken after 5, 10, 15, 30, and 60 minutes. The average of three replicates was used. A commercially available Dynatech Microfluor Reader, modified with an excitation filter at 540 nm, an emission filter at 620 nm, a 200-watt tungsten lamp and a heating element, was used to measure fluorescence.

[2] = tested on: Enterobacter cloacae (ATCC 23355); assay: Detection of Enterobacter cloacae with β-D-xylosidase substrate, fluorescence; assay type: cell-based; settings: for Relative Fluorescence: 37° C., ex 540 nm, em 620 nm
Experimental: as §1, §2, §3

trypsin, Type III = molecular target: T1, trypsin, Type III (Bos taurus, UniProt P00760); assay: Determination of hydrolytic enzymes: trypsin Type III; assay type: biochemical; settings: pH 7.8, 25° C., ex 540 nm, em 595 nm
T1 sequence (P00760 24-246): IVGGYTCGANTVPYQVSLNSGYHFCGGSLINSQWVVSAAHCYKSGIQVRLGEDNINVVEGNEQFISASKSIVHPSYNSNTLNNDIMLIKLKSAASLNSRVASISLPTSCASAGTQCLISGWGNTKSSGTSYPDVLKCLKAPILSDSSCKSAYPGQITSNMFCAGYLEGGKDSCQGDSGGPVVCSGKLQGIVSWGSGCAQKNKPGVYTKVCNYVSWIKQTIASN
Experimental: (§4) Test solutions were prepared with the following: 50 μl of substrate (1 mg/μl methanol), […] of 0.05 molar potassium phosphate buffer at the indicated pH (near the optimum for each enzyme) and 10 μl of enzyme. Enzymes to be determined included carboxylesterase, Type I (pH 7.8) and Type II (pH 6.0), aminoacylase, Grade I (pH 7.0), and trypsin, Type I and III (pH 7.8). Sample preparations and testing were done in an area protected from light. The enzyme solutions were kept at 0° C. prior to use, and assays were run at 25° C. with fluorescence measured at an excitation of 540 nm and an emission of 595 nm.

aminoacylase, Grade I = molecular target: T2, aminoacylase, Grade I (Sus scrofa, UniProt P37111); assay: Determination of hydrolytic enzymes: aminoacylase Grade I; assay type: biochemical; settings: Final Enzyme Activity 3,000 I.U., pH 7.0, 25° C., ex 540 nm, em 595 nm
T2 sequence (P37111 2-407 limits assumed): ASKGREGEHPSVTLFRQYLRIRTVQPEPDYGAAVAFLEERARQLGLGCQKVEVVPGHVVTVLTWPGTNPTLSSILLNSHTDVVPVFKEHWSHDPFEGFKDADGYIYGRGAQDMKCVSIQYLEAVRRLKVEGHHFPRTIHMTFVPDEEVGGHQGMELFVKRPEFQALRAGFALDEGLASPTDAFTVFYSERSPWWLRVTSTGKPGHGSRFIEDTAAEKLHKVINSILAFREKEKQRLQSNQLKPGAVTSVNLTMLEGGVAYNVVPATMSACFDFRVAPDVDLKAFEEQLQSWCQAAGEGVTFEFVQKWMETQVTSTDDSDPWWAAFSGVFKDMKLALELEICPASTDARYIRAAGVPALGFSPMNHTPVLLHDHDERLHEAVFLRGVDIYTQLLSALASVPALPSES
Experimental: as §4

carboxylesterase, Type I = assay: Determination of hydrolytic enzymes: carboxylesterase Type I; assay type: biochemical; settings: pH 7.8, 25° C., ex 540 nm, em 595 nm
Experimental: as §4

[3] = tested on: carboxylesterase, Type II; assay: Determination of hydrolytic enzymes: carboxylesterase Type II; assay type: biochemical; settings: Final Enzyme Activity 15 I.U., pH 6.0, 25° C., ex 540 nm, em 595 nm
Experimental: as §4

trypsin, Type I = molecular target: T3, trypsin, Type I (Bos taurus, UniProt P00760); assay: Determination of hydrolytic enzymes: trypsin Type I; assay type: biochemical; settings: pH 7.8, 25° C., ex 540 nm, em 595 nm
T3 sequence (P00760 24-246): T1 sequence (P00760 24-246)
Experimental: as §4

[4] = Millititer Plate 1, without surfactant, 0 min
[5] = Millititer Plate 1, without surfactant, 5 min
[6] = Millititer Plate 1, without surfactant, 10 min
[7] = Millititer Plate 1, without surfactant, 15 min
[8] = Millititer Plate 1, without surfactant, 30 min
[9] = Millititer Plate 1, without surfactant, 60 min
[10] = Millititer Plate 2, with TRITON X-100 surfactant, 0 min
[11] = Millititer Plate 2, with TRITON X-100 surfactant, 5 min
[12] = Millititer Plate 2, with TRITON X-100 surfactant, 10 min
[13] = Millititer Plate 2, with TRITON X-100 surfactant, 15 min
[14] = Millititer Plate 2, with TRITON X-100 surfactant, 30 min
[15] = Millititer Plate 2, with TRITON X-100 surfactant, 60 min
[16] = both substrate solutions (with and without surfactant)

Structure (SMILES): O=C1C=Cc2ccc(O[C@@H]3OC[C@@H](O)[C@H](O)[C@H]3O)c3cccc1c23 [Example 1, 1-(6-Oxyphenalenone)-β-D-xylopyranose]
Relative Fluorescence [1, 4]: 500
Relative Fluorescence [1, 5]: 585
Relative Fluorescence [1, 6]: 698
Relative Fluorescence [1, 7]: 752
Relative Fluorescence [1, 8]: 1205
Relative Fluorescence [1, 9]: 1686
Relative Fluorescence [1, 10]: 557
Relative Fluorescence [1, 11]: 635
Relative Fluorescence [1, 12]: 741
Relative Fluorescence [1, 13]: 869
Relative Fluorescence [1, 14]: 1232
Relative Fluorescence [1, 15]: 1976
Time at which the microorganism can be detected [1, 16]: 15 min
Relative Fluorescence [2, 4]: 525
Relative Fluorescence [2, 5]: 684
Relative Fluorescence [2, 6]: 925
Relative Fluorescence [2, 7]: 1150
Relative Fluorescence [2, 8]: 2245
Relative Fluorescence [2, 9]: 2717
Relative Fluorescence [2, 10]: 586
Relative Fluorescence [2, 11]: 902
Relative Fluorescence [2, 12]: 1341
Relative Fluorescence [2, 13]: 1795
Relative Fluorescence [2, 14]: 2626
Relative Fluorescence [2, 15]: 3003
Time at which the microorganism can be detected [2, 16]: 15 min

Relative Fluorescence (minus control with no enzyme) (trypsin, Type III; Final Enzyme Activity 6,000 I.U., 0 Min): 2.7
Relative Fluorescence (minus control with no enzyme) (trypsin, Type III; Final Enzyme Activity 6,000 I.U., 10 Min): 2.8
Relative Fluorescence (minus control with no enzyme) (trypsin, Type III; Final Enzyme Activity 6,000 I.U., 15 Min): 3.0
Relative Fluorescence (minus control with no enzyme) (trypsin, Type III; Final Enzyme Activity 6,000 I.U., 30 Min): 3.6
Relative Fluorescence (minus control with no enzyme) (trypsin, Type III; Final Enzyme Activity 60,000 I.U., 0 Min): 2.2
Relative Fluorescence (minus control with no enzyme) (trypsin, Type III; Final Enzyme Activity 60,000 I.U., 10 Min): 3.5
Relative Fluorescence (minus control with no enzyme) (trypsin, Type III; Final Enzyme Activity 60,000 I.U., 15 Min): 3.4
Relative Fluorescence (minus control with no enzyme) (trypsin, Type III; Final Enzyme Activity 60,000 I.U., 30 Min): 4.3
Relative Fluorescence (minus control with no enzyme) (aminoacylase, Grade I; 0 Min): 1.5
Relative Fluorescence (minus control with no enzyme) (aminoacylase, Grade I; 10 Min): 2.0
Relative Fluorescence (minus control with no enzyme) (aminoacylase, Grade I; 15 Min): 2.1
Relative Fluorescence (minus control with no enzyme) (aminoacylase, Grade I; 30 Min): 2.3
Relative Fluorescence (minus control with no enzyme) (carboxylesterase, Type I; Final Enzyme Activity 9.6 I.U., 0 Min): 2.7
Relative Fluorescence (minus control with no enzyme) (carboxylesterase, Type I; Final Enzyme Activity 9.6 I.U., 10 Min): 3.6
Relative Fluorescence (minus control with no enzyme) (carboxylesterase, Type I; Final Enzyme Activity 9.6 I.U., 15 Min): 4.1
Relative Fluorescence (minus control with no enzyme) (carboxylesterase, Type I; Final Enzyme Activity 9.6 I.U., 30 Min): 4.4
Relative Fluorescence (minus control with no enzyme) (carboxylesterase, Type I; Final Enzyme Activity 96 I.U., 0 Min): 3.0
Relative Fluorescence (minus control with no enzyme) (carboxylesterase, Type I; Final Enzyme Activity 96 I.U., 10 Min): 6.1
Relative Fluorescence (minus control with no enzyme) (carboxylesterase, Type I; Final Enzyme Activity 96 I.U., 15 Min): 7.9
Relative Fluorescence (minus control with no enzyme) (carboxylesterase, Type I; Final Enzyme Activity 96 I.U., 30 Min): 12.5
Relative Fluorescence (minus control with no enzyme) ([3]; 0 Min): 2.0
Relative Fluorescence (minus control with no enzyme) ([3]; 10 Min): 5.4
Relative Fluorescence (minus control with no enzyme) ([3]; 15 Min): 8.0
Relative Fluorescence (minus control with no enzyme) ([3]; 30 Min): 15.8
Relative Fluorescence (minus control with no enzyme) (trypsin, Type I; Final Enzyme Activity 5,000 I.U., 0 Min): 0
Relative Fluorescence (minus control with no enzyme) (trypsin, Type I; Final Enzyme Activity 5,000 I.U., 10 Min): 0.5
Relative Fluorescence (minus control with no enzyme) (trypsin, Type I; Final Enzyme Activity 5,000 I.U., 15 Min): 0.6
Relative Fluorescence (minus control with no enzyme) (trypsin, Type I; Final Enzyme Activity 5,000 I.U., 30 Min): 0.8
Relative Fluorescence (minus control with no enzyme) (trypsin, Type I; Final Enzyme Activity 50,000 I.U., 0 Min): 0
Relative Fluorescence (minus control with no enzyme) (trypsin, Type I; Final Enzyme Activity 50,000 I.U., 10 Min): 0.7
Relative Fluorescence (minus control with no enzyme) (trypsin, Type I; Final Enzyme Activity 50,000 I.U., 15 Min): 0.9
Relative Fluorescence (minus control with no enzyme) (trypsin, Type I; Final Enzyme Activity 50,000 I.U., 30 Min): 1.5
Structure (SMILES): CC(=O)Nc1ccc2c3c(cccc13)C(=O)C=C2 [Example 5]
